From PubChem BioAssay AID1259407 (Chemical Carcinogenesis Research Information System (CCRIS), 2018)
Activity calls are given as the source filed them. No rule for the calls is given here.

Test system: CCRIS mutagenicity, Ames/micronucleus/aberration tests
Assay: CCRIS mutagenicity studies
[1] = Test System: AMES SALMONELLA TYPHIMURIUM, Strain/Indicator: TA98, Metabolic Activation: HAMSTER, LIVER, S-9, AROCLOR 1254 (10%), Method: PREINCUBATION
[2] = Test System: AMES SALMONELLA TYPHIMURIUM, Strain/Indicator: TA98, Metabolic Activation: NONE, Method: PREINCUBATION
[3] = Test System: AMES SALMONELLA TYPHIMURIUM, Strain/Indicator: TA98, Metabolic Activation: RAT, LIVER, S-9, AROCLOR 1254 (10%), Method: PREINCUBATION
[4] = Test System: AMES SALMONELLA TYPHIMURIUM, Strain/Indicator: TA100, Metabolic Activation: HAMSTER, LIVER, S-9, AROCLOR 1254 (10%), Method: PREINCUBATION
[5] = Test System: AMES SALMONELLA TYPHIMURIUM, Strain/Indicator: TA100, Metabolic Activation: HAMSTER, LIVER, S-9, AROCLOR 1254 (30%), Method: PREINCUBATION
[6] = Test System: AMES SALMONELLA TYPHIMURIUM, Strain/Indicator: TA100, Metabolic Activation: NONE, Method: PREINCUBATION
[7] = Test System: AMES SALMONELLA TYPHIMURIUM, Strain/Indicator: TA100, Metabolic Activation: RAT, LIVER, S-9, AROCLOR 1254 (10%), Method: PREINCUBATION
[8] = Test System: AMES SALMONELLA TYPHIMURIUM, Strain/Indicator: TA100, Metabolic Activation: RAT, LIVER, S-9, AROCLOR 1254 (30%), Method: PREINCUBATION
[9] = Test System: AMES SALMONELLA TYPHIMURIUM, Strain/Indicator: TA1535, Metabolic Activation: HAMSTER, LIVER, S-9, AROCLOR 1254 (10%), Method: PREINCUBATION
[10] = Test System: AMES SALMONELLA TYPHIMURIUM, Strain/Indicator: TA1535, Metabolic Activation: HAMSTER, LIVER, S-9, AROCLOR 1254 (30%), Method: PREINCUBATION
[11] = Test System: AMES SALMONELLA TYPHIMURIUM, Strain/Indicator: TA1535, Metabolic Activation: NONE, Method: PREINCUBATION
[12] = Test System: AMES SALMONELLA TYPHIMURIUM, Strain/Indicator: TA1535, Metabolic Activation: RAT, LIVER, S-9, AROCLOR 1254 (10%), Method: PREINCUBATION
[13] = Test System: AMES SALMONELLA TYPHIMURIUM, Strain/Indicator: TA1535, Metabolic Activation: RAT, LIVER, S-9, AROCLOR 1254 (30%), Method: PREINCUBATION
[14] = Test System: AMES SALMONELLA TYPHIMURIUM, Strain/Indicator: TA1537, Metabolic Activation: NONE, Method: PREINCUBATION
[15] = Test System: AMES SALMONELLA TYPHIMURIUM, Strain/Indicator: TA98, Metabolic Activation: NONE, Method: STANDARD PLATE
[16] = Test System: AMES SALMONELLA TYPHIMURIUM, Strain/Indicator: TA100, Metabolic Activation: NONE, Method: STANDARD PLATE
[17] = Test System: AMES SALMONELLA TYPHIMURIUM, Strain/Indicator: TA1537, Metabolic Activation: HAMSTER, LIVER, S-9, AROCLOR 1254 (10%), Method: PREINCUBATION
[18] = Test System: AMES SALMONELLA TYPHIMURIUM, Strain/Indicator: TA1537, Metabolic Activation: RAT, LIVER, S-9, AROCLOR 1254 (10%), Method: PREINCUBATION
[19] = Test System: AMES SALMONELLA TYPHIMURIUM, Strain/Indicator: TA98, Metabolic Activation: RAT, LIVER, S-9, AROCLOR 1254, Method: STANDARD PLATE
[20] = Test System: AMES SALMONELLA TYPHIMURIUM, Strain/Indicator: TA100, Metabolic Activation: RAT, LIVER, S-9, AROCLOR 1254, Method: STANDARD PLATE

| Compound | mutagenic call [1] | mutagenic call [2] | mutagenic call [3] | mutagenic call [4] | mutagenic call [6] | mutagenic call [7] | mutagenic call [9] | mutagenic call [11] | mutagenic call [12] | mutagenic call [14] | mutagenic call [16] | further results |
| --- | --- | --- | --- | --- | --- | --- | --- | --- | --- | --- | --- | --- |
| Cc1cccc(Br)c1 | inactive; negative | inactive; negative | inactive; negative | inactive; negative | inactive; negative | inactive; negative | inactive; negative | inactive; negative | inactive; negative | inactive; negative |  | mutagenic call (Test System: AMES SALMONELLA TYPHIMURIUM, Strain/Indicator: TA97, Metabolic Activation: HAMSTER, LIVER, S-9, AROCLOR 1254 (10%), Method: PREINCUBATION): inactive; negative; mutagenic call (Test System: AMES SALMONELLA TYPHIMURIUM, Strain/Indicator: TA97, Metabolic Activation: HAMSTER, LIVER, S-9, AROCLOR 1254 (30%), Method: PREINCUBATION): inactive; negative; mutagenic call (Test System: AMES SALMONELLA TYPHIMURIUM, Strain/Indicator: TA97, Metabolic Activation: NONE, Method: PREINCUBATION): inactive; negative; mutagenic call (Test System: AMES SALMONELLA TYPHIMURIUM, Strain/Indicator: TA97, Metabolic Activation: RAT, LIVER, S-9, AROCLOR 1254 (10%), Method: PREINCUBATION): inactive; negative; mutagenic call (Test System: AMES SALMONELLA TYPHIMURIUM, Strain/Indicator: TA97, Metabolic Activation: RAT, LIVER, S-9, AROCLOR 1254 (30%), Method: PREINCUBATION): inactive; negative; mutagenic call (Test System: AMES SALMONELLA TYPHIMURIUM, Strain/Indicator: TA98, Metabolic Activation: HAMSTER, LIVER, S-9, AROCLOR 1254 (30%), Method: PREINCUBATION): inactive; negative; mutagenic call (Test System: AMES SALMONELLA TYPHIMURIUM, Strain/Indicator: TA98, Metabolic Activation: RAT, LIVER, S-9, AROCLOR 1254 (30%), Method: PREINCUBATION): inactive; negative; mutagenic call [5]: inactive; negative; mutagenic call [8]: inactive; negative; mutagenic call [10]: inactive; negative; mutagenic call [13]: inactive; negative; mutagenic call (Test System: AMES SALMONELLA TYPHIMURIUM, Strain/Indicator: TA1537, Metabolic Activation: HAMSTER, LIVER, S-9, AROCLOR 1254 (30%), Method: PREINCUBATION): inactive; negative; mutagenic call (Test System: AMES SALMONELLA TYPHIMURIUM, Strain/Indicator: TA1537, Metabolic Activation: RAT, LIVER, S-9, AROCLOR 1254 (30%), Method: PREINCUBATION): inactive; negative |
| CCCCCCC(C)(C)C(=O)OCC1CO1 (stereo not given) |  |  |  |  | inactive; negative |  |  | inactive; negative |  |  |  | mutagenic call [5]: active; positive; mutagenic call [8]: active; positive; mutagenic call [10]: active; positive; mutagenic call [13]: active; positive |
| Cc1cccc(C)c1N=Nc1c(O)ccc2ccccc12 |  |  |  |  |  |  |  |  |  |  | inactive; negative | mutagenic call [15]: inactive; negative; mutagenic call (Test System: AMES SALMONELLA TYPHIMURIUM, Strain/Indicator: TA98, Metabolic Activation: RAT, LIVER, S-9, Method: STANDARD PLATE): inactive; negative; mutagenic call (Test System: AMES SALMONELLA TYPHIMURIUM, Strain/Indicator: TA100, Metabolic Activation: RAT, LIVER, S-9, Method: STANDARD PLATE): inactive; negative |
| OCC(CBr)(CBr)CBr | inactive; negative | inactive; negative | inactive; negative | inactive; negative | inactive; negative | inactive; negative | active; positive | inactive; negative | inactive; negative | inactive; negative |  | mutagenic call [17]: inactive; negative; mutagenic call [18]: inactive; negative |
| Cn1c(N)nc2c3nc(-c4ccccc4)c(-c4ccccc4)nc3ccc21 |  |  |  |  |  |  |  |  |  |  |  | mutagenic call [19]: inactive; negative |
| CC(=O)c1cccc2c1OC1(C)OOC21C (stereo not given) |  |  |  |  | active; positive |  |  |  |  |  |  |  |
| CN(C)c1ccc(C(=C2C=CC(=[N+](C)C)C=C2)c2ccc(N(C)C)cc2)cc1 |  |  |  |  |  |  |  |  |  |  | inactive; negative | mutagenic call (Test System: AMES SALMONELLA TYPHIMURIUM, Strain/Indicator: TA97, Metabolic Activation: NONE, Method: STANDARD PLATE): inactive; negative; mutagenic call [15]: inactive; negative; mutagenic call [19]: inactive; negative; mutagenic call [20]: inactive; negative; mutagenic call (Test System: AMES SALMONELLA TYPHIMURIUM, Strain/Indicator: TA104, Metabolic Activation: NONE, Method: STANDARD PLATE): inactive; negative; mutagenic call (Test System: AMES SALMONELLA TYPHIMURIUM, Strain/Indicator: TA1535, Metabolic Activation: NONE, Method: STANDARD PLATE): inactive; negative; mutagenic call (Test System: AMES SALMONELLA TYPHIMURIUM, Strain/Indicator: TA1535, Metabolic Activation: RAT, LIVER, S-9, AROCLOR 1254, Method: STANDARD PLATE): inactive; negative; mutagenic call (Test System: CHINESE HAMSTER OVARY, Strain/Indicator: CHO-AS52 (GPT)/6-THIOGUANINE, Metabolic Activation: RAT, LIVER, S-9, AROCLOR 1254): inactive; negative; mutagenic call (Test System: CHINESE HAMSTER OVARY, Strain/Indicator: CHO-K1-BH4 (HPRT)/6-THIOGUANINE, Metabolic Activation: NONE): inactive; negative; mutagenic call (Test System: CHINESE HAMSTER OVARY, Strain/Indicator: CHO-K1-BH4 (HPRT)/6-THIOGUANINE, Metabolic Activation: RAT, LIVER, S-9, AROCLOR 1254): inactive; negative; mutagenic call (Test System: E. COLI, Strain/Indicator: DG1669, Metabolic Activation: NONE, Method: STANDARD PLATE): active; positive; mutagenic call (Test System: E. COLI, Strain/Indicator: DG1669, Metabolic Activation: RAT, LIVER, S-9, AROCLOR 1254, Method: STANDARD PLATE): active; positive |
| O=C(O)c1cc2c(c3c1c([N+](=O)[O-])cc1c(O)cccc13)OCO2 |  |  |  |  |  |  |  |  |  |  | active; positive | mutagenic call [20]: inactive; negative; mutagenic call (Test System: AMES SALMONELLA TYPHIMURIUM, Strain/Indicator: TA1537, Metabolic Activation: NONE, Method: STANDARD PLATE): active; positive; mutagenic call (Test System: AMES SALMONELLA TYPHIMURIUM, Strain/Indicator: TA1537, Metabolic Activation: RAT, LIVER, S-9, AROCLOR 1254, Method: STANDARD PLATE): inactive; negative |
| O=C1c2ccccc2C(=O)c2cc(O)ccc21 |  | active; positive | active; positive |  | inactive; negative | inactive; negative |  |  |  |  |  |  |
| C=CCNCC=C | inactive; negative | inactive; negative | inactive; negative | inactive; negative | inactive; negative | inactive; negative | inactive; negative | inactive; negative | inactive; negative | inactive; negative |  | mutagenic call [17]: inactive; negative; mutagenic call [18]: inactive; negative |
